Results on one compound are retold here after US20240415786A1, “COMPOSITIONS AND METHODS USING AN AUTOPHAGY INDUCER TO ENHANCE INTERMITTENT FASTING” (SOCIETE DES PRODUITS NESTLE S.A., priority 2021, published 2024).

Experiment [1] has as its system C. elegans. Nature of the experiment: Worm survival assay on solid agar plate. It counts as in vivo. The following applies: thymol 50 M (so in the source), solid agar plates, n=60 per group, vs vehicle (DMSO 1%), log rank test. Here is the method: C. elegans strains were cultured at 20° C. on nematode growth media agar plates seeded with E. coli strain OP50. Thymol was dissolved in DMSO and added at the indicated concentrations just before pouring the plates. Worms were exposed to compounds during the full life from eggs until death. To ensure a permanent exposure to the compound, plates were changed twice a week. The control population was treated with the corresponding concentration of DMSO at 1%. For lifespan measurements, parental F0 L4 worms were grown to reach adulthood and lay eggs on the treatment plates. The derived F1 worms were therefore exposed to compounds during the full life from eggs until death. Adults were daily scored manually as dead or alive. A worm was considered dead if it was not moving spontaneously and it was not responding to a touch on the head. The control population was treated with the corresponding concentration of DMSO at 1%.

Experiment [2] concerns C. elegans. Kind of experiment: Worm survival assay in microfluidics. It is filed as in vivo. The following applies: thymol 50 μM, worms treated in microfluidics (conditions mimicking IF), vs vehicle, log rank test. How it is done:
A worm suspension is first injected into a microfluidic device. The geometry of the device is optimized for retaining inside the worm culture chamber only adult worms by simply selecting the correct flow rate for the sample injection. Upon isolation of a defined worm population inside the chamber, worms are cultured and treated on-chip with thymol at controlled temperature of 20° C. Worm culture is maintained in the chamber by the perfusion of E. coli. The microfluidic chip is integrated onto an inverted microscope integrated with a camera that continuously records videos (every 10 hours). Images are longitudinally analyzed by different parameters that include readouts of body bends frequency, velocity, curvature and amplitude of the movement at the head, tail and middle of the body, which automatically provide information about worms health span and vitality.

As for `Cc1ccc(C(C)C)c(O)c1` [thymol], the effect on lifespan entry in the experiment on C. elegans [1] is reported as “no significant effects on lifespan”; in the experiment on C. elegans [2], “increases lifespan”.
